In patent US12052991B2, “Substituted pyridinyloxybenzenes and salts thereof and use thereof as herbicidal agents” (Bayer Aktiengesellschaft, priority 2018, dated 2024):

Assays:
Type in all cases: in vivo
Veronica persica (VERPE) [1] = experiment: Herbicidal pre-emergence action, test C (Table C12); details: visual scoring vs untreated controls
How it was run: (§1)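 Sandy loam, doubly sown pots; surface spray pre-emergence; 1280 or 320 g/ha; 0.5% additive; 600 L/ha. Greenhouse, ~3 weeks. Visual % vs untreated.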

[2] = tested on: Digitaria sanguinalis (DIGSA); experiment: Herbicidal post-emergence action (Table B10); details: visual rating about 3 weeks after treatment, 100% = plants have died, 0% = like control plants
How it was run: (§2)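 Weeds grown from seed in sandy loam in the greenhouse were sprayed at the one-leaf stage, 2 to 3 weeks after sowing, with WP or EC formulations in water plus 0.5% additive at 600 L/ha. Rates corresponded to 1280 or 320 g/ha; damage was rated visually versus untreated controls after about 3 weeks.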

[3] = tested on: Alopecurus myosuroides (ALOMY); experiment: Herbicidal pre-emergence action, test C (Table C9); details: visual scoring after about 3 weeks, 100% = plants have died, 0% = like control plants
How it was run: as §1

Lolium rigidum (LOLRI) [4] = experiment: Herbicidal post-emergence action (Table B2); details: 1280 g/ha; rated visually after about 3 weeks; 100% = plants have died, 0% = like control plants
Procedure: (§3) Seeds of mono- and dicotyledonous weed plants were placed in plastic pots in sandy loam soil (doubly sown with in each case one species of mono- or dicotyledonous weed plants per pot), covered with soil and cultivated in a greenhouse under controlled growth conditions. 2 to 3 weeks after sowing, the test plants were treated at the one-leaf stage. The compounds of the invention, formulated in the form of wettable powders (WP) or as emulsion concentrates (EC), were applied onto the green parts of the plants as aqueous suspension or emulsion with addition of 0.5% additive at a water application rate of 600 liters per hectare (converted). After the test plants had been kept in the greenhouse under optimum growth conditions for about 3 weeks, the activity of the preparations was rated visually in comparison to untreated controls. For example, 100% activity=the plants have died, 0% activity=like control plants. Tables B1 to B12 below show the effects of selected compounds of the general formula (I) according to Table 1 on various harmful plants and an application rate corresponding to 1280 or 320 g/ha, which were obtained by the experimental procedure mentioned above.

Veronica persica (VERPE) [5] = experiment: Herbicidal post-emergence action (Table B12); details: visual rating about 3 weeks after treatment, 100% = plants have died, 0% = like control plants
How it was run: as §2

Poa annua (POAAN) = experiment: Herbicidal pre-emergence action, test C (Table C3); details: visual scoring after about 3 weeks, 100% = plants have died, 0% = like control plants
How it was run: as §1

[6] = tested on: Amaranthus retroflexus (AMARE); experiment: Herbicidal pre-emergence action, test C (Table C6); details: visual scoring after about 3 weeks, 100% = plants have died, 0% = like control plants
How it was run: as §1

Stellaria media (STEME) [7] = experiment: Herbicidal pre-emergence action, test C (Table C8); details: visual scoring after about 3 weeks, 100% = plants have died, 0% = like control plants
How it was run: as §1

[8] = tested on: Digitaria sanguinalis (DIGSA); experiment: Herbicidal pre-emergence action, test C (Table C10); details: visual scoring after about 3 weeks, 100% = plants have died, 0% = like control plants
How it was run: as §1

[9] = tested on: Abutilon theophrasti (ABUTH); experiment: Herbicidal pre-emergence action, test C (Table C5); details: visual scoring after about 3 weeks, 100% = plants have died, 0% = like control plants
How it was run: as §1

[10] = tested on: harmful plants ABUTH, AMARE, ECHCG, LOLRI, MATIN, POAAN, SETVI, STEME, ALOMY, DIGSA, KCHSC and VERPE; experiment: Herbicidal pre-emergence action (test C), summary of Tables C1-C12; details: application rate of 1280 or 320 g of active ingredient per hectare; summary in words
How it was run: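 Pre-emergence pot test in sandy loam: WP or EC formulations were sprayed onto the covering soil with 0.5% additive at 600 L/ha water, at 1280 or 320 g/ha. Plants were kept in the greenhouse, and activity was rated visually about 3 weeks later as % versus untreated controls (100% = dead).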

Setaria viridis (SETVI) [11] = experiment: Herbicidal pre-emergence action, test C (Table C4); details: visual scoring after about 3 weeks, 100% = plants have died, 0% = like control plants
How it was run: as §1

Setaria viridis (SETVI) [12] = experiment: Herbicidal post-emergence action (Table B4); details: 1280 g/ha; rated visually after about 3 weeks; 100% = plants have died, 0% = like control plants
Procedure: as §3

[13] = tested on: Echinochloa crus-galli (ECHCG); experiment: Herbicidal pre-emergence action, test C (Table C1); details: visual scoring after about 3 weeks, 100% = plants have died, 0% = like control plants
How it was run: as §1

[14] = tested on: Abutilon theophrasti (ABUTH); experiment: Herbicidal post-emergence action (Table B5); details: rated visually after about 3 weeks, 100% = plants have died, 0% = like control plants
How it was run: as §2

[15] = tested on: Matricaria inodora (MATIN); experiment: Herbicidal pre-emergence action, test C (Table C7); details: visual scoring after about 3 weeks, 100% = plants have died, 0% = like control plants
How it was run: as §1

Bassia scoparia (KCHSC) [16] = experiment: Herbicidal pre-emergence action, test C (Table C11); details: visual scoring vs untreated controls
Description: Seeds of mono- and dicotyledonous weed plants were placed in plastic pots in sandy loam soil (doubly sown with one species each of mono- or dicotyledonous weed plants per pot) and covered with soil. The compounds of the invention, formulated in the form of wettable powders (WP) or as emulsion concentrates (EC), were then applied onto the surface of the covering soil as aqueous suspension or emulsion with addition of 0.5% additive at a water application rate of 600 liters per hectare (converted). After the treatment, the pots were placed in a greenhouse and kept under good growth conditions for the test plants. After about 3 weeks, the effect of the preparations was scored visually in comparison with untreated controls as percentages. For example, 100% activity=the plants have died, 0% activity=like control plants. Tables C1 to C12 below show the effects of selected compounds of the general formula (I) according to Table 1 on various harmful plants and an application rate corresponding to 1280 or 320 g/ha, which were obtained by the experimental procedure mentioned above.

[17] = tested on: harmful plants ABUTH, AMARE, ECHCG, LOLRI, MATIN, POAAN, SETVI, STEME, ALOMY, DIGSA, KCHSC and VERPE; experiment: Herbicidal post-emergence action, summary of Tables B1-B12; details: application rate of 1280 or 320 g of active ingredient per hectare; summary in words
How it was run: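 Greenhouse weeds in sandy loam treated post-emergence at the one-leaf stage, 2–3 weeks after sowing, with WP or EC formulations sprayed with 0.5% additive at 600 L/ha water, 1280 or 320 g/ha. Damage rated visually after about 3 weeks versus untreated controls (0% = like control, 100% = dead).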

[18] = tested on: Amaranthus retroflexus (AMARE); experiment: Herbicidal post-emergence action (Table B6); details: visual rating about 3 weeks after treatment, 100% = plants have died, 0% = like control plants
How it was run: as §2

[19] = tested on: Alopecurus myosuroides (ALOMY); experiment: Herbicidal post-emergence action (Table B9); details: rated visually after about 3 weeks, 100% = plants have died, 0% = like control plants
How it was run: as §2

Lolium rigidum (LOLRI) [20] = experiment: Herbicidal pre-emergence action, test C (Table C2); details: dosage 1280 g/ha; visual scoring after about 3 weeks; 100% = plants have died, 0% = like control plants
How it was run: as §1

Stellaria media (STEME) [21] = experiment: Herbicidal post-emergence action (Table B8); details: visual rating about 3 weeks after treatment, 100% = plants have died, 0% = like control plants
How it was run: as §2

Bassia scoparia (KCHSC) [22] = experiment: Herbicidal post-emergence action (Table B11); details: visual rating about 3 weeks after treatment, 100% = plants have died, 0% = like control plants
How it was run: as §2

Fc1cc(Cl)cnc1Oc1ccccc1-c1cncc(C(F)(F)F)c1 [Example 1-72]
Pre-emergence action against Veronica persica (VERPE) (Veronica persica (VERPE) [1]; dosage 320 g/ha): 100%
Pre-emergence action against Veronica persica (VERPE) (Veronica persica (VERPE) [1]; dosage 1280 g/ha): 100%
Post-emergence action against Digitaria sanguinalis (DIGSA) ([2]; dosage 320 g/ha): 90%
Post-emergence action against Digitaria sanguinalis (DIGSA) ([2]; dosage 1280 g/ha): 100%
Pre-emergence action against Alopecurus myosuroides (ALOMY) ([3]; dosage 320 g/ha): 100%
Pre-emergence action against Alopecurus myosuroides (ALOMY) ([3]; dosage 1280 g/ha): 100%
Post-emergence action against Lolium rigidum (LOLRI) (Lolium rigidum (LOLRI) [4]): 100%
Post-emergence action against Veronica persica (VERPE) (Veronica persica (VERPE) [5]; dosage 320 g/ha): 100%
Post-emergence action against Veronica persica (VERPE) (Veronica persica (VERPE) [5]; dosage 1280 g/ha): 100%
Pre-emergence action against Poa annua (POAAN) (Poa annua (POAAN); dosage 320 g/ha): 100%
Pre-emergence action against Poa annua (POAAN) (Poa annua (POAAN); dosage 1280 g/ha): 100%
Pre-emergence action against Amaranthus retroflexus (AMARE) ([6]; dosage 320 g/ha): 100%
Pre-emergence action against Amaranthus retroflexus (AMARE) ([6]; dosage 1280 g/ha): 100%
Pre-emergence action against Stellaria media (STEME) (Stellaria media (STEME) [7]; dosage 320 g/ha): 90%
Pre-emergence action against Stellaria media (STEME) (Stellaria media (STEME) [7]; dosage 1280 g/ha): 100%
Pre-emergence action against Digitaria sanguinalis (DIGSA) ([8]; dosage 320 g/ha): 100%
Pre-emergence action against Digitaria sanguinalis (DIGSA) ([8]; dosage 1280 g/ha): 100%
Pre-emergence action against Abutilon theophrasti (ABUTH) ([9]; dosage 320 g/ha): 100%
Pre-emergence action against Abutilon theophrasti (ABUTH) ([9]; dosage 1280 g/ha): 100%
herbicidal activity against the harmful plants of Tables C1-C12 in pre-emergence treatment [10]: very good herbicidal activity
Pre-emergence action against Setaria viridis (SETVI) (Setaria viridis (SETVI) [11]; dosage 320 g/ha): 100%
Pre-emergence action against Setaria viridis (SETVI) (Setaria viridis (SETVI) [11]; dosage 1280 g/ha): 100%
Post-emergence action against Setaria viridis (SETVI) (Setaria viridis (SETVI) [12]): 90%
Pre-emergence action against Echinochloa crus-galli (ECHCG) ([13]; dosage 320 g/ha): 100%
Pre-emergence action against Echinochloa crus-galli (ECHCG) ([13]; dosage 1280 g/ha): 100%
Post-emergence action against Abutilon theophrasti (ABUTH) ([14]; 320 g/ha): 100%
Post-emergence action against Abutilon theophrasti (ABUTH) ([14]; 1280 g/ha): 100%
Pre-emergence action against Matricaria inodora (MATIN) ([15]; dosage 320 g/ha): 90%
Pre-emergence action against Matricaria inodora (MATIN) ([15]; dosage 1280 g/ha): 100%
Pre-emergence action against Bassia scoparia (KCHSC) (Bassia scoparia (KCHSC) [16]; dosage 320 g/ha): 100%
Pre-emergence action against Bassia scoparia (KCHSC) (Bassia scoparia (KCHSC) [16]; dosage 1280 g/ha): 100%
herbicidal activity against the harmful plants of Tables B1-B12 in post-emergence treatment [17]: very good herbicidal activity
Post-emergence action against Amaranthus retroflexus (AMARE) ([18]; dosage 320 g/ha): 100%
Post-emergence action against Amaranthus retroflexus (AMARE) ([18]; dosage 1280 g/ha): 100%
Post-emergence action against Alopecurus myosuroides (ALOMY) ([19]; 320 g/ha): 100%
Post-emergence action against Alopecurus myosuroides (ALOMY) ([19]; 1280 g/ha): 100%
Pre-emergence action against Lolium rigidum (LOLRI) (Lolium rigidum (LOLRI) [20]): 100%
Post-emergence action against Stellaria media (STEME) (Stellaria media (STEME) [21]; dosage 320 g/ha): 100%
Post-emergence action against Stellaria media (STEME) (Stellaria media (STEME) [21]; dosage 1280 g/ha): 100%
Post-emergence action against Bassia scoparia (KCHSC) (Bassia scoparia (KCHSC) [22]; dosage 320 g/ha): 100%
Post-emergence action against Bassia scoparia (KCHSC) (Bassia scoparia (KCHSC) [22]; dosage 1280 g/ha): 100%
